Source: PMC6868923 (EXCLI Journal, 2019)
Where “and” joins values, the source holds several entries; their conditions need not be identical. Equal values may be shown once. Read-outs that look alike come from different tables or passages of the source.

Key:
[1] = test system: Herpes simplex type 1 F strain (HSV-1); assay: microbe, parasite or virus in culture; type: cell-based, Herpes Simplex Virus type 1; settings: for EC50 / inhibition at 10 µM / inhibition at 0.0001 µM / inhibition at 0.001 µM / inhibition at 0.01 µM / inhibition at 0.1 µM / inhibition at 1 µM: Human alphaherpesvirus 1, Vero; for EC50: 48 h, read-out: EC50 HSV-1; for inhibition at 10 µM: read-out: Inhibitory effect against HSV-1; for inhibition at 0.0001 µM / inhibition at 0.001 µM / inhibition at 0.01 µM / inhibition at 0.1 µM / inhibition at 1 µM: N 3, read-out: Inhibition percent relative to control, Herpes simplex virus (Median)
in vitro [2] = settings: human (HepG2.2.15); African green monkey (Vero)
[3] = test system: poliovirus type 1 Sabin strain (PV-1); assay: microbe, parasite or virus in culture; type: cell-based; settings: for EC50 / inhibition at 0.0001 µM / inhibition at 0.001 µM / inhibition at 0.01 µM / inhibition at 0.1 µM / inhibition at 1 µM: Enterovirus C, Vero; for EC50: 24 h, read-out: EC50 PV-1; for inhibition at 0.0001 µM / inhibition at 0.001 µM / inhibition at 0.01 µM / inhibition at 0.1 µM / inhibition at 1 µM: N 3, read-out: Inhibition percent relative to control, Polio virus (Median)
in vitro [4] = settings: human
Hepatitis B virus (HBV) = assay: microbe, parasite or virus in culture; type: cell-based; settings: read-out: EC50 HBV
[5] = test system: HepG2.2.15 and Vero cells
[6] = Hepatitis B virus, HepG2.2.15, 72 h

With `COc1ccc(-c2oc3cc(OC)c(OC)c(O)c3c(=O)c2OC)cc1OC` [PMF-OH, 5-hydroxy-3,6,7,3',4'-pentamethoxyflavone] the “Plaque forming units, Herpes simplex virus” value ([1]; 0.0001 µM) was 96 PFU and 98 PFU and 90 PFU, the “Plaque forming units, Herpes simplex virus” value ([1]; 0.001 µM) was 80 PFU and 82 PFU and 86 PFU and the “Plaque forming units, Herpes simplex virus” value ([1]; 0.01 µM) was 76 PFU and 73 PFU and 70 PFU. The “Plaque forming units, Herpes simplex virus” value ([1]; 0.1 µM) was 67 PFU and 55 PFU and 50 PFU, the “Plaque forming units, Herpes simplex virus” value ([1]; 1 µM) was 10 PFU and 5 PFU and the EC50 [1] was 5.9 ± 0.1 µM. For the same compound, the inhibition at 10 µM [1] was 60%, the inhibition at 0.0001 µM ([1]; 0.0001 µM) was 1.4% and the inhibition at 0.001 µM ([1]; 0.001 µM) was 13.9%. For the same compound, the inhibition at 0.01 µM ([1]; 0.01 µM) was 24%, the inhibition at 0.1 µM ([1]; 0.1 µM) was 40.3% and the inhibition at 1 µM ([1]; 1 µM) was 91.3%. The CC50 (in vitro [2]) was over 100 µM, the “Plaque forming units, Polio virus” value ([3]; 0.0001 µM) was 92 PFU and 95 PFU and 90 PFU and the “Plaque forming units, Polio virus” value ([3]; 0.001 µM) was 76 PFU and 70 PFU and 73 PFU. For the same compound, the “Plaque forming units, Polio virus” value ([3]; 0.01 µM) was 42 PFU and 40 PFU and 48 PFU, the “Plaque forming units, Polio virus” value ([3]; 0.1 µM) was 23 PFU and 20 PFU and 26 PFU and the EC50 [3] was 1.1 ± 0.03 µM. It also gave an inhibition at 0.0001 µM ([3]; 0.0001 µM) of 0.1%, an inhibition at 0.001 µM ([3]; 0.001 µM) of 18.9% and an inhibition at 0.01 µM ([3]; 0.01 µM) of 51.9%. It also gave an inhibition at 0.1 µM ([3]; 0.1 µM) of 74.4%, an inhibition at 1 µM [3] of 96.3% and a CC50 (in vitro [4]) of 10 ± 0.58 µM. For the same compound, the EC50 (Hepatitis B virus (HBV); [6]) was 0.098 µM.
Work on `C[C@@H]1O[C@@H](OC[C@H]2O[C@H](Oc3c(-c4cc(O)c(O)c(O)c4)oc4cc(O)cc(O)c4c3=O)[C@H](O)[C@@H](O)[C@H]2O)[C@H](O)[C@H](O)[C@H]1O` [MyrGG, myricetin-3-α-O-ramnosil (1→6)-α-galactoside] yielded a CC50 [5] of over 100 µM, a CC50 (HepG2.2.15 cells) of over 100 µM and an EC50 (Hepatitis B virus (HBV)) of 12 µM.
`CC(C)CCC[C@@H](C)[C@H]1CC[C@H]2C3=CC[C@H]4C[C@@H](O)CC[C@]4(C)[C@H]3CC[C@]12C` [5-α-cholestan-7-en3-β-ol] gave a CC50 [5] of over 100 µM and a CC50 (HepG2.2.15 cells) of over 100 µM.
marcetol showed a CC50 [5] of over 100 µM and a CC50 (HepG2.2.15 cells) of over 100 µM.
`CC(C)CCC[C@@H](C)[C@H]1CC[C@H]2[C@@H]3CC[C@H]4C[C@@H](O)CC[C@]4(C)[C@H]3CC[C@]12C` [5-α-cholestan-3-β-ol] gave a CC50 [5] of over 100 µM and a CC50 (HepG2.2.15 cells) of over 100 µM.
In the case of `C[C@@H]1O[C@@H](Oc2c(-c3cc(O)c(O)c(O)c3)oc3cc(O)cc(O)c3c2=O)[C@H](O)[C@H](O)[C@H]1O` [MyrG, myricetin rhamnoside], the CC50 [5] is reported as over 100 µM, the CC50 (HepG2.2.15 cells) is reported as over 100 µM and the EC50 (Hepatitis B virus (HBV)) is reported as 0.015 µM.
Compound `C=C(C)C1CCC2(C)CCC3(C)C(=CCC4C5(C)CCC(O)C(C)(C)C5CCC43C)C12` (stereo not drawn) [Upa-12,20(29)-dien-3-ol, lupa-12,20(29)-dien-3-ol] has a CC50 [5] of over 100 µM and a CC50 (HepG2.2.15 cells) of over 100 µM.
In the case of `COc1ccc(-c2oc3c(OC)c(OC)c(OC)c(O)c3c(=O)c2OC)cc1O` [PMF, 5,3'-dihydroxy-3,6,7,8,4'-pentamethoxyflavone], the “Plaque forming units, Herpes simplex virus” value ([1]; 0.0001 µM) is reported as 98 PFU and 91 PFU and 90 PFU, the “Plaque forming units, Herpes simplex virus” value ([1]; 0.001 µM) is reported as 82 PFU and 68 PFU and 76 PFU and the “Plaque forming units, Herpes simplex virus” value ([1]; 0.01 µM) is reported as 68 PFU and 73 PFU and 61 PFU. For the same compound, the “Plaque forming units, Herpes simplex virus” value ([1]; 0.1 µM) was 48 PFU and 58 PFU and 55 PFU, the “Plaque forming units, Herpes simplex virus” value ([1]; 1 µM) was 34 PFU and 30 PFU and 37 PFU and the EC50 [1] was 6.8 ± 0.2 µM. For the same compound, the inhibition at 10 µM [1] was 90%, the inhibition at 0.0001 µM ([1]; 0.0001 µM) was 3.14% and the inhibition at 0.001 µM ([1]; 0.001 µM) was 21.5%. For the same compound, the inhibition at 0.01 µM ([1]; 0.01 µM) was 29.9%, the inhibition at 0.1 µM ([1]; 0.1 µM) was 44.1% and the inhibition at 1 µM ([1]; 1 µM) was 64.9%. The CC50 (in vitro [2]) was over 100 µM, the “Plaque forming units, Polio virus” value ([3]; 0.0001 µM) was 91 PFU and 92 PFU and 89 PFU and the “Plaque forming units, Polio virus” value ([3]; 0.001 µM) was 81 PFU and 80 PFU and 78 PFU. The “Plaque forming units, Polio virus” value ([3]; 0.01 µM) was 45 PFU and 41 PFU and 48 PFU, the “Plaque forming units, Polio virus” value ([3]; 0.1 µM) was 11 PFU and 16 PFU and 10 PFU and the EC50 [3] was 1 ± 0.05 µM. For the same compound, the inhibition at 0.0001 µM ([3]; 0.0001 µM) was 0.1%, the inhibition at 0.001 µM ([3]; 0.001 µM) was 11.5% and the inhibition at 0.01 µM ([3]; 0.01 µM) was 50.4%. The inhibition at 0.1 µM ([3]; 0.1 µM) was 86.3%, the inhibition at 1 µM [3] was 97.8% and the CC50 (in vitro [4]) was 10 ± 0.1 µM. It also gave an EC50 (Hepatitis B virus (HBV); [6]) of 0.001 µM.
Work on 24,25-dehydropollinastanol yielded a CC50 [5] of over 100 µM and a CC50 (HepG2.2.15 cells) of over 100 µM.
